Results taken from patent US11384078B2, “5,6-fused-bicyclic compounds and compositions for the treatment of parasitic diseases” (NOVARTIS AG, priority 2017, dated 2022).
Like-named read-outs stand apart in the source and are kept apart here.

Columns and labels:
Format in all cases: cell-based
[1] = system: L. donovani HU3 strain in mouse peritoneal macrophages; test: Assay for inhibition of parasitemia of Leishmania donovani in mouse macrophages (SYBR Green nuclei count, high-content imaging); conditions: Leishmania donovani, Peritoneal macrophage, read-out: L. donovani in Mouse Macrophages EC50
Procedure, shortened: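 Peritoneal macrophages from uninfected BALB/c mice were infected for 24 h with spleen-derived L. donovani HU3 (4×10^5 parasites per 2×10^4 macrophages), then cultured with compound for 5 days at 37° C, 5% CO2. After fixation and permeabilization, parasite nuclei were stained with SYBR Green and counted by high-content imaging.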

[2] = system: Trypanosoma cruzi amastigotes cultured in 3T3 fibroblast cells; test: Assay for growth inhibition of kinetoplastid parasite Trypanosoma cruzi (beta-galactosidase Tulahuen strain, CPRG readout); conditions: Trypanosoma cruzi, T. cruzi amastigotes in 3T3 fibroblast cells, read-out: Buckner infectious T. cruzi EC50
Procedure, shortened: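 3T3 fibroblasts (1,000 cells/well) plated overnight, treated with compound in DMSO, then infected with 10,000 Lac-Z-expressing Tulahuen trypomastigotes. After 6 days, 0.6 mM CPRG with 0.6% NP-40 added for 2 h at room temperature; absorbance gives relative intracellular amastigote numbers. Benznidazole and nifurtimox serve as positive controls.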

[3] = system: Leishmania donovani axenic amastigote; test: In vitro assay for growth inhibition of Leishmania donovani axenic amastigote (Cell TiterGlo luminescence); conditions: Leishmania donovani, L. donovani axenic amastigotes in vitro; read-out: L. donovani amastigotes EC50
Procedure, shortened: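 Axenic L. donovani amastigotes (9600/well) grown at 37 °C, 5% CO2 in supplemented RPMI 1640, pH 5.5, with compound added from DMSO. After two days, viability read by CellTiter-Glo luminescence against DMSO and control-compound wells.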

[4] = system: Trypanosoma brucei brucei (Lister 427) strain; test: Assay for growth inhibition against Trypanosoma brucei brucei (Cell TiterGlo ATP luminescence); conditions: Trypanosoma brucei, T. brucei brucei (Lister 427); read-out: T. Brucei (HAT) EC50
Procedure, shortened: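 T. b. brucei Lister 427 grown in HMI-9 with 10% FBS and 10% serum plus, seeded at 10,000 parasites/mL with 10-point threefold compound dilutions in duplicate, 37 °C for 2 days. Viability read as ATP luminescence 30 min after Cell TiterGlo; IC50 versus untreated controls.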

[5] = L. donovani in mouse peritoneal macrophages

SMILES: CC(C)c1cnc2nn(-c3cc(NC(=O)c4cc(Cl)ccc4F)ccc3F)cc2c1 [Compound 89, 5-chloro-2-fluoro-N-{4-fluoro-3-[5-(propan-2-yl)-2H-pyrazolo[3,4-b]pyridin-2-yl]phenyl}benzamide]
- EC50 [1, 5]: 270 nM
- EC50 ([2]; Fibroblast): 32 nM
- EC50 [3]: 470 nM
- EC50 [4]: 33 nM

SMILES: CC(C)c1cnc2nn(-c3cc(NC(=O)C4CC4)ccc3F)cc2c1 [Compound 90, N-{4-fluoro-3-[5-(propan-2-yl)-2H-pyrazolo[3,4-b]pyridin-2-yl]phenyl}cyclopropanecarboxamide]
- EC50 [1, 5]: 310 nM
- EC50 ([2]; Fibroblast): 140 nM
- EC50 [3]: 280 nM
- EC50 [4]: 77 nM

SMILES: O=C(Nc1ccc(F)c(-n2cc3cc(C4CC4)cnc3n2)c1)N1CCC1 [Compound 91, N-(3-{5-cyclopropyl-2H-pyrazolo[3,4-b]pyridin-2-yl}-4-fluorophenyl)azetidine-1-carboxamide]
- EC50 [1, 5]: 8.6 nM
- EC50 ([2]; Fibroblast): 4.1 nM
- EC50 [3]: 8.7 nM
- EC50 [4]: < 23 nM

SMILES: O=C(Nc1ccc(F)c(-n2cc3cc(C4CCC4)cnc3n2)c1)N1CCC1 [Compound 93, N-(3-{5-cyclobutyl-2H-pyrazolo[3,4-b]pyridin-2-yl}-4-fluorophenyl)azetidine-1-carboxamide]
- EC50 [1, 5]: 32 nM
- EC50 ([2]; Fibroblast): 7 nM
- EC50 [3]: 34 nM
- EC50 [4]: < 23 nM

SMILES: CC(C)(C)Cc1cnc2nn(-c3cc(NC(=O)N4CCC4)ccc3F)cc2c1 [Compound 94, N-{3-[5-(2,2-dimethylpropyl)-2H-pyrazolo[3,4-b]pyridin-2-yl]-4-fluorophenyl}azetidine-1-carboxamide]
- EC50 [1, 5]: 8.1 nM
- EC50 ([2]; Fibroblast): 1.8 nM
- EC50 [3]: 12 nM
- EC50 [4]: < 23 nM

SMILES: CCCC(C)c1cnc2nn(-c3cc(NC(=O)N4CCC4)ccc3F)cc2c1 (stereo not shown) [Compound 95, N-{4-fluoro-3-[5-(pentan-2-yl)-2H-pyrazolo[3,4-b]pyridin-2-yl]phenyl}azetidine-1-carboxamide]
- EC50 [1, 5]: 350 nM
- EC50 ([2]; Fibroblast): 170 nM
- EC50 [3]: 420 nM
- EC50 [4]: 85 nM

SMILES: CCC(C)c1cnc2nn(-c3cc(NC(=O)N4CCC4)ccc3F)cc2c1 (stereo not shown) [Compound 96, N-{3-[5-(butan-2-yl)-2H-pyrazolo[3,4-b]pyridin-2-yl]-4-fluorophenyl}azetidine-1-carboxamide]
- EC50 [1, 5]: 21 nM
- EC50 ([2]; Fibroblast): 18 nM
- EC50 [3]: 23 nM
- EC50 [4]: < 23 nM

SMILES: O=C(Nc1ccc(F)c(-n2cc3cc(CC4CCC4)cnc3n2)c1)N1CCC1 [Compound 97, N-{3-[5-(cyclobutylmethyl)-2H-pyrazolo[3,4-b]pyridin-2-yl]-4-fluorophenyl}azetidine-1-carboxamide]
- EC50 [1, 5]: 440 nM
- EC50 ([2]; Fibroblast): 8.8 nM
- EC50 [3]: 12 nM
- EC50 [4]: < 23 nM

SMILES: CC(C)CCc1cnc2nn(-c3cc(NC(=O)N4CCC4)ccc3F)cc2c1 [Compound 98, N-{4-fluoro-3-[5-(3-methylbutyl)-2H-pyrazolo[3,4-b]pyridin-2-yl]phenyl}azetidine-1-carboxamide]
- EC50 [1, 5]: 23 nM
- EC50 ([2]; Fibroblast): 15 nM
- EC50 [3]: 25 nM
- EC50 [4]: < 23 nM

SMILES: O=C(Nc1ccc(F)c(-n2cc3cc(-c4ccccn4)cnc3n2)c1)N1CCC1 [Compound 99, N-{4-fluoro-3-[5-(pyridin-2-yl)-2H-pyrazolo[3,4-b]pyridin-2-yl]phenyl}azetidine-1-carboxamide]
- EC50 [1, 5]: 2 nM
- EC50 ([2]; Fibroblast): 1 nM
- EC50 [3]: 1.3 nM
- EC50 [4]: > 50000 nM

SMILES: Cc1nc(C)c(C(=O)Nc2ccc(F)c(-n3cc4cc(C5CCC5)cnc4n3)c2)o1 [Compound 101, N-(3-{5-cyclobutyl-2H-pyrazolo[3,4-b]pyridin-2-yl}-4-fluorophenyl)-2,4-dimethyl-1,3-oxazole-5-carboxamide]
- EC50 [1, 5]: 310 nM
- EC50 ([2]; Fibroblast): 130 nM
- EC50 [3]: 300 nM
- EC50 [4]: 150 nM

SMILES: Cc1nc(C)c(C(=O)Nc2ccc(F)c(-n3cc4cc(C(C)(C)C)cnc4n3)c2)o1 [Compound 103, N-(3-{5-tert-butyl-2H-pyrazolo[3,4-b]pyridin-2-yl}-4-fluorophenyl)-2,4-dimethyl-1,3-oxazole-5-carboxamide]
- EC50 [1, 5]: 400 nM
- EC50 ([2]; Fibroblast): 150 nM
- EC50 [3]: 680 nM
- EC50 [4]: 310 nM

SMILES: CCC(C)(C)c1cnc2nn(-c3cc(NC(=O)c4oc(C)nc4C)ccc3F)cc2c1 [Compound 104, N-{4-fluoro-3-[5-(2-methylbutan-2-yl)-2H-pyrazolo[3,4-b]pyridin-2-yl]phenyl}-2,4-dimethyl-1,3-oxazole-5-carboxamide]
- EC50 [1, 5]: 2100 nM
- EC50 ([2]; Fibroblast): 1200 nM
- EC50 [3]: 3100 nM
- EC50 [4]: 4200 nM

SMILES: CCC(C)c1cnc2nn(-c3cc(NC(=O)c4oc(C)nc4C)ccc3F)cc2c1 (stereo not shown) [Compound 105, N-{3-[5-(butan-2-yl)-2H-pyrazolo[3,4-b]pyridin-2-yl]-4-fluorophenyl}-2,4-dimethyl-1,3-oxazole-5-carboxamide]
- EC50 [1, 5]: 890 nM
- EC50 ([2]; Fibroblast): 430 nM
- EC50 [3]: 720 nM
- EC50 [4]: 380 nM

SMILES: Cc1nc(C)c(C(=O)Nc2ccc(F)c(-n3cc4cc(CC5CCC5)cnc4n3)c2)o1 [Compound 106, N-{3-[5-(cyclobutylmethyl)-2H-pyrazolo[3,4-b]pyridin-2-yl]-4-fluorophenyl}-2,4-dimethyl-1,3-oxazole-5-carboxamide]
- EC50 [1, 5]: 85 nM
- EC50 ([2]; Fibroblast): 61 nM
- EC50 [3]: 130 nM
- EC50 [4]: > 50000 nM

SMILES: Cc1nc(C)c(C(=O)Nc2ccc(F)c(-n3cc4cc(CCC(C)C)cnc4n3)c2)o1 [Compound 107, N-{4-fluoro-3-[5-(3-methylbutyl)-2H-pyrazolo[3,4-b]pyridin-2-yl]phenyl}-2,4-dimethyl-1,3-oxazole-5-carboxamide]
- EC50 [1, 5]: 130 nM
- EC50 ([2]; Fibroblast): 77 nM
- EC50 [3]: 220 nM
- EC50 [4]: 88 nM

SMILES: Cc1nc(C)c(C(=O)Nc2ccc(F)c(-n3cc4cc(-c5ccccn5)cnc4n3)c2)o1 [Compound 108, N-{4-fluoro-3-[5-(pyridin-2-yl)-2H-pyrazolo[3,4-b]pyridin-2-yl]phenyl}-2,4-dimethyl-1,3-oxazole-5-carboxamide]
- EC50 [1, 5]: 4 nM
- EC50 ([2]; Fibroblast): 3.8 nM
- EC50 [3]: 3.3 nM
- EC50 [4]: < 23 nM

SMILES: CC(C)OC(=O)Nc1cnc2nn(-c3cc(NC(=O)c4ccco4)ccc3F)cc2c1 [Compound 123, propan-2-yl N-{2-[2-fluoro-5-(furan-2-amido)phenyl}-2H-pyrazolo[3,4-b]pyridin-5-yl}carbamate]
- EC50 [1, 5]: 8.9 nM
- EC50 ([2]; Fibroblast): 4.4 nM
- EC50 [3]: 9.4 nM
- EC50 [4]: < 23 nM

SMILES: O=C(Nc1ccc(F)c(-n2cc3cc(Br)cnc3n2)c1)N1CC(F)(F)C1 [Compound 125, N-(3-(5-bromo-2H-pyrazolo[3,4-b]pyridin-2-yl)-4-fluorophenyl)-3,3-difluoroazetidine-1-carboxamide]
- EC50 [1]: 31 nM
- EC50 [2]: 34 nM
- EC50 [3]: 44 nM
- EC50 [4]: < 23 nM

SMILES: O=C(Nc1ccc(F)c(-n2cc3cc(Br)cnc3n2)c1)N1CC(F)C1 [Compound 126, N-(3-(5-bromo-2H-pyrazolo[3,4-b]pyridin-2-yl)-4-fluorophenyl)-3-fluoroazetidine-1-carboxamide]
- EC50 [1]: 14 nM
- EC50 [2]: 14 nM
- EC50 [3]: 24 nM
- EC50 [4]: < 23 nM

SMILES: O=C(Nc1ccc(F)c(-n2cc3cc(Br)cnc3n2)c1)N1CC[C@@H](F)C1 [Compound 127, (R)—N-(3-(5-bromo-2H-pyrazolo[3,4-b]pyridin-2-yl)-4-fluorophenyl)-3-fluoropyrrolidine-1-carboxamide]
- EC50 [1, 5]: 17 nM
- EC50 ([2]; Fibroblast): 6.8 nM
- EC50 [3]: 25 nM
- EC50 [4]: < 23 nM

SMILES: Cc1nc(C)c(C(=O)Nc2ccc(F)c(-n3cc4cc(Br)cnc4n3)c2)o1 [Compound 128, N-(3-(5-bromo-2H-pyrazolo[3,4-b]pyridin-2-yl)-4-fluorophenyl)-2,4-dimethyloxazole-5-carboxamide]
- EC50 [1, 5]: 190 nM
- EC50 ([2]; Fibroblast): 140 nM
- EC50 [3]: 380 nM
- EC50 [4]: 180 nM

SMILES: O=C(Nc1ccc(F)c(-n2cc3cc(Br)cnc3n2)c1)N1CCC1 [Compound 129, N-(3-(5-bromo-2H-pyrazolo[3,4-b]pyridin-2-yl)-4-fluorophenyl)azetidine-1-carboxamide]
- EC50 [1]: 31 nM
- EC50 [2]: 15 nM
- EC50 [3]: 29 nM
- EC50 [4]: < 23 nM

SMILES: O=C(Nc1ccc(F)c(-n2cc3cc(Br)cnc3n2)c1)c1ccco1 [Compound 130, N-(3-(5-bromo-2H-pyrazolo[3,4-b]pyridin-2-yl)-4-fluorophenyl)furan-2-carboxamide]
- EC50 [1, 5]: 160 nM
- EC50 ([2]; Fibroblast): 36 nM
- EC50 [3]: 190 nM
- EC50 [4]: 40 nM

SMILES: O=C(Nc1ccc(F)c(-n2cc3cc(N4CCCC4)cnc3n2)c1)N1CC(F)C1 [Compound 131, 3-fluoro-N-{4-fluoro-3-[5-(pyrrolidin-1-yl)-2H-pyrazolo[3,4-b]pyridin-2-yl]phenyl}azetidine-1-carboxamide]
- EC50 [1, 5]: 5.1 nM
- EC50 ([2]; Fibroblast): 5.2 nM
- EC50 [3]: 7 nM
- EC50 [4]: < 23 nM
